Reference: patent US10945980B2, “Treatment for myopia” (The University of Newcastle, priority 2016, dated 2021)

Tests used:
[1] = system: lens-induced myopia in guinea pigs; assay: Intravitreal L-arginine in lens-induced (−6D) myopia, 3 days; type: in vivo, guinea pig (Cavia porcellus); conditions: 0.2 mM L-arginine daily intravitreal at 7, 8, 9 days of age, −6D lens 3 days; not significant p=0.169
[2] = system: lens-induced myopia in guinea pigs; assay: L-arginine eye drops in −6D lens-induced myopia; type: in vivo, guinea pig (Cavia porcellus)
From the text: Guinea pigs (pigmented variety, Cavia porcellus) were bred, housed, and raised as described in Example 1. Lights were on a 12 hr light 12 hr dark cycle. The University of Newcastle Animal Care and ethics Committee approved all procedures.
Two experimental protocols were employed (see Table 4). In Experiment 1, young guinea pigs wore a −6D lens on one eye from 5-12 days of age. They were randomly divided within each litter into two groups of 10 animals each, and received either a drop of L-Arginine (100 mM, 1.7%) in Saline (pH 7.4) or Saline alone (0.9%, pH 7.4) twice per day in the eye wearing the lens (Table 4). Drops were administered at the beginning of their light cycle and again approximately 6 hrs later in the middle of their day cycle. Lenses were removed during the drop administration which occurred under dim red light or in darkness. A single large drop was bathed on the cornea for 3 min in the lens-wearing eye in hand held animals. A clean lens was then reintroduced onto the eye. In Experiment 2, 14 guinea pigs were given eye drops in the same manner as in Experiment 1, but in both eyes and without any lens-wear, to determine the effect of the eye drops on normal eye growth. Animals received one drop of either 1.7% L-arginine (n=7) or atropine (Minims Atropine Sulphate 1%, Bausch & Lomb, preservative free, n=7) in one eye and saline (0.9%) in the other eye twice per day from 9-16 days of age.
In Experiment 1, at the end of the lens-wearing period, at 12 days of age just before the morning lights came on, both eyes were cyclopleged (1% Cyclopentolate—to paralyse the focussing muscles of the eye to a resting state) and 1.25 hours later, refractive error (RE) was measured. Animals were then anaesthetised with gaseous anaesthetic (1.5% isoflurane in oxygen) and eye length measures were taken in both eyes with high frequency ultrasound as described in Example 1. Biometry measures were also taken in the same manner before the lens wear period at 5 days of age. [No refractive measures were done at 5 days of age as cycloplegia could have interfered with the drug or lens response]. In Experiment 2, refractive error and eye length using ultrasound were measured in the same manner at 17 days of age, 24 hours after the previous drop was administered.
In Experiment 1, lens-induced myopia was achieved by attaching −6D concave lenses to matching Velcro arcs glued above and below the experimental eye as previously described (Howlett & McFadden, 2009). Lenses were exchanged with a clean lens after drop administration.
After cycloplegia was induced, refractive error was measured in each eye using an Autorefractor (Nidek AR-20, Japan). The spherical equivalent was calculated as the average of the sphere plus half the cylinder as is normal in clinical practice. All reported refractive errors are the spherical equivalent. Next, ocular length was measured using high frequency ultrasound (20 MHz) as previously described (McFadden et al, 2004). At least 20 traces were recorded for each eye and distances were averaged for at least 10 of these recordings. Peaks from the recordings were selected for the back of the cornea, the crystalline lens, and the vitreous chamber, and the layers at the back of the eye: the retina, choroid, and sclera. Ocular length was defined as the summed measurement from the front of the cornea to the back of the sclera.
Differences between the two eyes were analysed by a 2-tailed T-tests. The mean of calculated differences between the two eyes is referred to as relative myopia or relative ocular length and the difference in the change in ocular length in the treated compared to the untreated eye as relative growth.

Structure (SMILES): N=C(N)NCCC[C@H](N)C(=O)O [L-arginine]
- interocular difference in refractive error (lens-wearing eye more hyperopic than fellow eye) [1]: 2.00 D
- animals that did not develop myopia in the lens-wearing eye ([2]; 1.7% (100 mM) LA eye drops twice daily, −6D lens): 7/10
- relative eye growth (mean growth in ocular length) across all animals ([2]; 1.7% LA eye drops twice daily, between 5 and 12 days of age, −6D lens, p=0.01 vs saline): 42±17 μm
- relative growth in the 70% of animals which failed to develop myopia ([2]; 1.7% LA eye drops twice daily, between 5 and 12 days of age, p=0.44): 10±12 μm
- animals protected from developing myopia ([2]; 1.7% LA eye drops twice daily, −6D lens): 70%
- relative myopia in the 7 animals that did not develop myopia ([2]; 1.7% LA eye drops twice daily, −6D lens, p=0.000 vs saline): −2.5±0.7 D
- relative myopia, mean across all 10 animals ([2]; 1.7% LA eye drops twice daily, −6D lens, p=0.007 vs saline): −3.6±0.8 D
- mean myopia as percent of that in control animals ([2]; 1.7% LA eye drops, the 70% of animals protected): 37%
- mean refractive error in untreated eyes ([2]; untreated fellow eyes of LA group at 12 days of age, 1.7% LA eye drops twice daily in the other eye): +5.2±0.5 D
